This is an account of results in US9650339B2, “Inhibitors of histone demethylases” (Gilead Sciences, Inc., priority 2013, dated 2017).

pIC50: −log10 of the molar value.

What all share (assay type): biochemical
One experiment addresses T1, KDM4B (JMJD2B) (Homo sapiens, UniProt O94953).
T1 construct: 2-500; purchased BPS; host or cells: Bac (baculovirus system)
T1 sequence (O94953 2-500): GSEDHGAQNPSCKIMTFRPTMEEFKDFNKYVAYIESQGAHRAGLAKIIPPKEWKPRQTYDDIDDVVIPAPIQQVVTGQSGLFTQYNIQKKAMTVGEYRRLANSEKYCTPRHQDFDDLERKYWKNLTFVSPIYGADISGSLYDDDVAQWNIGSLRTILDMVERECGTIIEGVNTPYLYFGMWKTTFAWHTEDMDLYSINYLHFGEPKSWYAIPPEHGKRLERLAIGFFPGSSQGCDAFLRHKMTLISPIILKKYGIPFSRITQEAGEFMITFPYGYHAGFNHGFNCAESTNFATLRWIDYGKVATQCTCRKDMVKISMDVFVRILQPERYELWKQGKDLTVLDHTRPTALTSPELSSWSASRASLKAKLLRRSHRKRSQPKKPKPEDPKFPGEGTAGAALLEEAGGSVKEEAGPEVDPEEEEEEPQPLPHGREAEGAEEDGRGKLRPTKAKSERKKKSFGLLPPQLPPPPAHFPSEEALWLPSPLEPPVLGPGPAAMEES
The experiment can be described thus: Histone lysine demethylase AlphaLISA assay, KDM4B. The following applies: read-out: KDM4B HDME Inhibition IC50. The gist of the method: (§1)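 AlphaLISA demethylation readout: enzyme preincubated 10 min, then 10 min with compounds in 3% DMSO buffer, before biotinylated methyl-lysine histone peptide substrate with 25 μM L-Asc and 10 μM α-KG, room temperature. Acceptor beads then streptavidin donor beads added, dark incubation, plates read.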
(In general: In Alpha technology, singlet oxygen from a donor bead excites a nearby acceptor bead.)

In the next experiment the target is T2, KDM4C (JMJD2C) (Homo sapiens, UniProt Q9H3R0).
T2 sequence (Q9H3R0 1-349): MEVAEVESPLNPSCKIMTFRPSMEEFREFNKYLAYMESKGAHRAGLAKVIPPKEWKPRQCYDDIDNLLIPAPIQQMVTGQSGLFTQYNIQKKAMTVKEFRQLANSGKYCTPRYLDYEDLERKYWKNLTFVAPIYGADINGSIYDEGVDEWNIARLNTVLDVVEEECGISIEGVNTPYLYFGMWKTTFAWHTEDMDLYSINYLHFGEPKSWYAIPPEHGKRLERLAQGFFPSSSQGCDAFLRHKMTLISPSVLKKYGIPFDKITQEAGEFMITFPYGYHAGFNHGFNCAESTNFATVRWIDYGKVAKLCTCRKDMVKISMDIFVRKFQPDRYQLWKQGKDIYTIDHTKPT
The experiment can be described thus: Histone lysine demethylase AlphaLISA assay, KDM4C. The following applies: read-out: KDM4C HDME Inhibition IC50. In short, it runs like this: as §1

For another experiment, the target named is T3, KDM6B (JMJD3) (Homo sapiens, UniProt O15054).
T3 construct: 1043-end; purchased BPS; host or cells: Bac (baculovirus system)
The experiment can be described thus: Histone lysine demethylase AlphaLISA assay, KDM6B. The note with it: read-out: KDM6B HDME Inhibition IC50. In short, it runs like this:
as §1

T3 sequence (O15054 1043-1682 isoform O15054-1 limits assumed): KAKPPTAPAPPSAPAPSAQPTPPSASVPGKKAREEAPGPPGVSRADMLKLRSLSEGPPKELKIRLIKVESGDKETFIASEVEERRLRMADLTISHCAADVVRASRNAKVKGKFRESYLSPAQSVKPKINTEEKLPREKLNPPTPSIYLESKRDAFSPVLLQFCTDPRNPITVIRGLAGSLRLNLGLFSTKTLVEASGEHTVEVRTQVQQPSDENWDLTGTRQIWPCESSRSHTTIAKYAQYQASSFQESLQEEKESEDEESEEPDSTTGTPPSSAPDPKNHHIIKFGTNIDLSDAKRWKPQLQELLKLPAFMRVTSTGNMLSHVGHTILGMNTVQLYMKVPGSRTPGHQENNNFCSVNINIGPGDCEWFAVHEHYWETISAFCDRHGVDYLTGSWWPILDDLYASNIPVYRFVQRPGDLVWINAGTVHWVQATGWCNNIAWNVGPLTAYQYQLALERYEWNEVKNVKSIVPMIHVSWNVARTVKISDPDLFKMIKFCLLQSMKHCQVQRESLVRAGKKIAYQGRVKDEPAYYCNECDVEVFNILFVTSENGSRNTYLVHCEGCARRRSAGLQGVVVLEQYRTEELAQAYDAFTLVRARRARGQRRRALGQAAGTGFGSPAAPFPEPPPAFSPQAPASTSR

As usually defined, the pIC50 is −log10 of the IC50, conventionally taken in molar units. For `CN(C)CCCCNCc1cc(CN)ccn1` [Compound 2, [2-({[4-(dimethylamino)butyl]-amino}methyl)pyridin-4-yl]methanamine], the negative-log IC50 (pIC50) on KDM4B (JMJD2B), on KDM4C (JMJD2C) and at KDM6B (JMJD3) was less than 5.60 each time.

For the molecule `CN(C)CCNCc1ccnc(CNCCCN(C)Cc2ccccc2)c1` [Compound 18, benzyl[3-({[4-({[2-(dimethylamino)ethyl]-amino}methyl)pyridin-2-yl]methyl}-amino)propyl]-methylamine], the pIC50 on KDM4B (JMJD2B), at KDM4C (JMJD2C) and at KDM6B (JMJD3) was less than 5.60 each time.

As for `COCCNCc1ccnc(CNCCCN(C)Cc2ccccc2)c1` [Compound 19, benzyl(3-{[(4-{[(2-methoxyethyl)amino]-methyl}pyridin-2-yl)methyl]amino}-propyl)methylamine], the pIC50 at KDM4B (JMJD2B), at KDM4C (JMJD2C) and at KDM6B (JMJD3) was less than 5.60 in each case.

`COc1ccccc1CN1CCC(NC(=O)CNCc2cc(CNC3CC3)ccn2)CC1` [Compound 20, 2-[({4-[(cyclopropylamino)-methyl]pyridin-2-yl}methyl)amino]-N-{1-[(2-methoxyphenyl)methyl]-piperidin-4-yl}acetamide]: the pIC50 at KDM4B (JMJD2B) was more than 6.60; at KDM4C (JMJD2C), 5.60 to 6.60; on KDM6B (JMJD3) it was less than 5.60.

With `CCN(CCN(C)C)C(=O)CN(Cc1cc(CNC(=O)C(F)(F)F)ccn1)C(=O)C(F)(F)F` [Compound 26, N-[(2-{[N-({[2-(dimethylamino)ethyl]-(ethyl)carbamoyl}-methyl)-2,2,2-trifluoroacetamido]-methyl}pyridin-4-yl)methyl]-2,2,2-trifIuoroacetamide], the pIC50 at KDM4C (JMJD2C) is less than 5.60.

As for `COC(=O)CNCc1cc(/C=N/C2CC2)ccn1` [Compound 59, methyl 2-[({4-[N-cyclopropyl-carboximidoyl]pyridin-2-yl}methyl)amino]-acetate], the results for the negative-log IC50 (pIC50) on KDM4B (JMJD2B), on KDM4C (JMJD2C) and on KDM6B (JMJD3) were more than 6.60, 5.60 to 6.60 and less than 5.60, respectively.

As for `CCN(CC)CCCCNCc1cc(C2NCCCN2C)ccn1` (stereo not shown) [Compound 68, [4-(diethylamino)butyl]({[4-(1-methyl-1,3-diazinan-2-yl)pyridin-2-yl]methyl})amine], the negative logarithm of the IC50 (pIC50) on KDM4C (JMJD2C) was 5.60 to 6.60.

Take `O=Cc1ccnc(CNCCCCN(Cc2ccccc2)C2CC2)c1` [Compound 109, 2-[({4-[benzyl-(cyclopropyl)amino]-butyl}amino)methyl]-pyridine-4-carbaldehyde]: the pIC50 on KDM4B (JMJD2B) is more than 6.60; at KDM4C (JMJD2C), 5.60 to 6.60.

For `O=Cc1ccnc(CNCC(=O)NC2CCN(Cc3ccccc3)C2)c1` (stereo not shown) [Compound 113, N-(1-benzylpyrrolidin-3-yl)-2-{[(4-formylpyridin-2-yl)methyl]amino}-acetamide], the figures for the negative logarithm of the IC50 (pIC50) at KDM4B (JMJD2B), at KDM4C (JMJD2C) and on KDM6B (JMJD3) were more than 6.60, 5.60 to 6.60 and less than 5.60, respectively.
